Laboratory results published in the NIST ThermoML archive (doi:10.1016/j.fluid.2015.03.003).
± gives the expanded uncertainty stated by the source.

Conditions: 298.15 K, 101.33 kPa, Liquid; for electrical conductivity: Alternating current cell with electrodes; for mass density: Pycnometric method; for viscosity: Vibrating wire viscometry

electrical conductivity [S/m] | mass density [kg/m3] | viscosity [mPa·s] | Compound
0.2 ± 0.004 | 1260 ± 340 | 134 ± 28 | CC(C)Cn1cc[n+](C)c1.[Br-] [1-isobutyl-3-methylimidazolium bromide]
0.403 ± 0.006 | 1250 ± 610 | 67.6 ± 13 | CC(C)Cn1cc[n+](CC(C)C)c1.[Br-] [1,3-diisobutylimidazolium bromide]
0.918 ± 0.006 | 1200 ± 560 | 11.1 ± 1.8 | CCCCn1cc[n+](CCCC)c1.[Br-] [1,3-dibutylimidazolium bromide]
0.08 ± 0.01 | 1230 ± 330 | 363 ± 110 | CCCCn1cc[n+](C)c1.[Br-] [1-butyl-3-methylimidazolium bromide]
